From ChEMBL document CHEMBL1201862, “PubChem BioAssay data set” (2004)
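1) Cells in 96-well plates. 2) Compound, 48 h, 5 concentrations. 3) Linear interpolation between surrounding doses. 4) Unreached endpoint = highest concentration. Here, GI50 denotes the concentration required for 50% inhibition of growth.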 Active and inactive are the calls of the source. Rule as the data show it: active = GI50 up to about 1.1 µM and inactive = higher.

What was measured:
Test in all cases: DTP human tumour cell line panel, 48 h
786-0 = tested on: 786-0
COLO 205 = tested on: COLO 205
HOP-92 = tested on: HOP-92
HT-29 = tested on: HT-29
IGROV-1 = tested on: IGROV-1
LOX IMVI = tested on: LOX IMVI
LXFL 529 = tested on: LXFL 529
M14 = tested on: M14
OVCAR-3 = tested on: OVCAR-3
OVCAR-4 = tested on: OVCAR-4
SF-268 = tested on: SF-268
SW-620 = tested on: SW-620
UACC-257 = tested on: UACC-257
EKVX = tested on: EKVX
HCC 2998 = tested on: HCC 2998
MCF7 = tested on: MCF7
MDA-MB-435 = tested on: MDA-MB-435
PC-3 = tested on: PC-3
RXF 393 = tested on: RXF 393
T47D = tested on: T47D

| SMILES | GI50 (786-0) | GI50 (COLO 205) | GI50 (HOP-92) | GI50 (HT-29) | GI50 (IGROV-1) | GI50 (LOX IMVI) | GI50 (LXFL 529) | GI50 (M14) | GI50 (OVCAR-3) | GI50 (OVCAR-4) | GI50 (SF-268) | GI50 (SW-620) | GI50 (UACC-257) | GI50 (EKVX) | GI50 (HCC 2998) | GI50 (MCF7) | GI50 (MDA-MB-435) | GI50 (PC-3) | GI50 (RXF 393) | GI50 (T47D) |
| --- | --- | --- | --- | --- | --- | --- | --- | --- | --- | --- | --- | --- | --- | --- | --- | --- | --- | --- | --- | --- |
| CC(=O)OCC1OC(n2cc(F)c(=O)[nH]c2=O)C(NC(=O)N(CCCl)N=O)C(OC(C)=O)C1OC(C)=O (stereo not given) | 54.2 µM (inactive) | > 100 µM (inactive) | > 100 µM (inactive) | > 100 µM (inactive) | > 100 µM (inactive) | 43.3 µM (inactive) | > 100 µM (inactive) | > 100 µM (inactive) | > 100 µM (inactive) | > 100 µM (inactive) | 17.3 µM (inactive) | > 100 µM (inactive) | > 100 µM (inactive) |  |  |  |  |  |  |  |
| C[N+](C)(C)[BH-](Br)C(O)O (stereo not given) | > 100 µM (inactive) | > 100 µM (inactive) | > 100 µM (inactive) | > 100 µM (inactive) | > 100 µM (inactive) | > 100 µM (inactive) |  | > 100 µM (inactive) | > 100 µM (inactive) | > 100 µM (inactive) | > 100 µM (inactive) | > 100 µM (inactive) | > 100 µM (inactive) | > 100 µM (inactive) | > 100 µM (inactive) | > 100 µM (inactive) | > 100 µM (inactive) | > 100 µM (inactive) | > 100 µM (inactive) | > 100 µM (inactive) |
| Cc1nc2c(O)c3c(c(O)c2nc1C)C1C=CC3CC1 | 13.9 µM (inactive) | 19.7 µM (inactive) | 2.9 µM (inactive) | 21.4 µM (inactive) | 7.31 µM (inactive) | 3.53 µM (inactive) |  | 15.3 µM (inactive) | 6.22 µM (inactive) | 3.06 µM (inactive) | 10.4 µM (inactive) | 12.4 µM (inactive) | 7.24 µM (inactive) | 11 µM (inactive) | > 40.2 µM (inactive) | 9.75 µM (inactive) | 3.04 µM (inactive) | 9.35 µM (inactive) | 9.23 µM (inactive) | 2.79 µM (inactive) |
| C=CC1(CBr)CCC(C(C)(C)Br)O1 (stereo not given) | 1.79 µM (inactive) | 5.43 µM (inactive) | 14.9 µM (inactive) | 5.77 µM (inactive) | 8.13 µM (inactive) | 1.74 µM (inactive) |  | 13.1 µM (inactive) | 9.42 µM (inactive) | 14.3 µM (inactive) | 15.7 µM (inactive) | 3.56 µM (inactive) | 13.7 µM (inactive) | 18 µM (inactive) | 16.6 µM (inactive) | 15.6 µM (inactive) | 12.6 µM (inactive) | 12 µM (inactive) | 13.7 µM (inactive) | 2.28 µM (inactive) |
| Cc1cc(NCCCCCCNc2cc(C)nc3ccc(Cl)cc23)c2cc(Cl)ccc2n1 | 17.4 µM (inactive) | 18.3 µM (inactive) |  | 15.2 µM (inactive) |  | 14.9 µM (inactive) | > 100 µM (inactive) | > 100 µM (inactive) | 18 µM (inactive) | 20 µM (inactive) | 14.7 µM (inactive) |  | 20 µM (inactive) | 15.8 µM (inactive) | 16.4 µM (inactive) |  |  |  | 16.1 µM (inactive) |  |
| CCCC(=O)Nc1cc(/C=C/C(=O)N2CC(CCl)c3c2cc(OC(C)=O)c2[nH]cc(C)c32)n(C)c1 (stereo not given) | < 2.5e-05 µM (active) | 7.03e-05 µM (active) | 4.28e-05 µM (active) | 5.49e-05 µM (active) | 3.76e-05 µM (active) | < 2.5e-05 µM (active) |  | 5.38e-05 µM (active) | < 2.5e-05 µM (active) | < 2.5e-05 µM (active) | < 2.5e-05 µM (active) | 2.96e-05 µM (active) | 2.97e-05 µM (active) | 0.000108 µM (active) | < 2.5e-05 µM (active) | 2.94e-05 µM (active) | 4.95e-05 µM (active) | 5.01e-05 µM (active) | < 2.5e-05 µM (active) | 6.3e-05 µM (active) |
| CCCSC1=N/C(=C\c2ccco2)C(=O)N1 | > 100 µM (inactive) | > 100 µM (inactive) | > 100 µM (inactive) | > 100 µM (inactive) | > 100 µM (inactive) | > 100 µM (inactive) |  | > 100 µM (inactive) | > 100 µM (inactive) | > 100 µM (inactive) | > 100 µM (inactive) | > 100 µM (inactive) | > 100 µM (inactive) | 67.3 µM (inactive) | > 100 µM (inactive) | 36 µM (inactive) | > 100 µM (inactive) | > 100 µM (inactive) | > 100 µM (inactive) | 46.2 µM (inactive) |
| O=C(/C=C1\N=C(c2ccccc2)N(c2ccc3c(c2)Sc2cc(N4C(=O)/C(=C/C(=O)/C=C/c5ccccc5)N=C4c4ccccc4)ccc2N3)C1=O)/C=C/c1ccccc1 | 42.2 µM (inactive) | > 100 µM (inactive) | 67.5 µM (inactive) | > 100 µM (inactive) | 37.2 µM (inactive) | 30.5 µM (inactive) |  | 64 µM (inactive) | 24.9 µM (inactive) | 20.8 µM (inactive) | 69.5 µM (inactive) | 67.6 µM (inactive) | 27.4 µM (inactive) | 85.7 µM (inactive) | > 100 µM (inactive) | 23.9 µM (inactive) | 22 µM (inactive) | 19.5 µM (inactive) | 27.3 µM (inactive) | 63.7 µM (inactive) |
| COc1cc(C2c3cc4c(cc3CC3COC(=O)N32)OCO4)cc(OC)c1OC (stereo not given) | 3.09 µM (inactive) | 1.92 µM (inactive) | 14.1 µM (inactive) | 2.12 µM (inactive) | 7.13 µM (inactive) | 3.14 µM (inactive) |  | 3.37 µM (inactive) | 1.93 µM (inactive) | 14.1 µM (inactive) | 8.04 µM (inactive) | 2.13 µM (inactive) | 26.1 µM (inactive) | 4.76 µM (inactive) | 2.93 µM (inactive) | 3.84 µM (inactive) | 0.404 µM (active) | 1.99 µM (inactive) | 1.57 µM (inactive) | > 100 µM (inactive) |
| CN(C)Cc1cc(C(=O)/C=C/c2ccc(/C=C/C(=O)c3cc(CN(C)C)c(O)c(CN(C)C)c3)cc2)cc(CN(C)C)c1O | 19.6 µM (inactive) | 14.4 µM (inactive) | 24.2 µM (inactive) | 13.5 µM (inactive) | 35.2 µM (inactive) | 11.9 µM (inactive) |  | 17 µM (inactive) | 32.1 µM (inactive) | 50.6 µM (inactive) | 27.5 µM (inactive) | 20.8 µM (inactive) | 24.8 µM (inactive) | 39.2 µM (inactive) | 16.9 µM (inactive) | 9.42 µM (inactive) | 24 µM (inactive) | 15.1 µM (inactive) | 26.7 µM (inactive) | > 100 µM (inactive) |
| CN(C)c1ccc(-c2nc(N)nc3c2CCCC3)cc1 | 82 µM (inactive) | 42.5 µM (inactive) |  |  | 64.4 µM (inactive) | 31.3 µM (inactive) | 63.8 µM (inactive) | 68.1 µM (inactive) | 23.4 µM (inactive) |  | 47.2 µM (inactive) | > 100 µM (inactive) |  | 28.4 µM (inactive) | 80 µM (inactive) |  |  |  | 34 µM (inactive) |  |
| CN(C)CC/C(=N\Nc1ccc(Cl)cc1)c1ccccc1 | 1.26 µM (inactive) | 1.75 µM (inactive) |  | 1.28 µM (inactive) | 1.28 µM (inactive) | 0.256 µM (active) | 0.182 µM (active) | 1.67 µM (inactive) | 1.51 µM (inactive) | 1.77 µM (inactive) | 0.566 µM (active) | 0.431 µM (active) | 1.64 µM (inactive) | 1.36 µM (inactive) |  |  |  |  | 2.57 µM (inactive) |  |
| c1csc(-c2cscc2-c2ccsc2)c1 | > 63.1 µM (inactive) | > 100 µM (inactive) | > 86.5 µM (inactive) | > 84.9 µM (inactive) | 68.9 µM (inactive) | 41.1 µM (inactive) |  | 54.1 µM (inactive) | 18.4 µM (inactive) | 44.5 µM (inactive) | 75 µM (inactive) | 62.2 µM (inactive) | > 94.4 µM (inactive) | 41.2 µM (inactive) | 28.4 µM (inactive) | 30.6 µM (inactive) | 25.5 µM (inactive) | > 43.8 µM (inactive) | 20.9 µM (inactive) | > 55.1 µM (inactive) |
| COc1ccc(NC/C=C/C(=C/COC(C)=O)OC(C)=O)cc1 | 1.18 µM (inactive) | 1.88 µM (inactive) | 1.8 µM (inactive) | 2.19 µM (inactive) | 1.8 µM (inactive) | 2.13 µM (inactive) |  | 1.73 µM (inactive) | 2 µM (inactive) | 1.82 µM (inactive) | 2.52 µM (inactive) | 1.69 µM (inactive) | 2.24 µM (inactive) | 2.03 µM (inactive) | 3.03 µM (inactive) | 2.63 µM (inactive) | 1.73 µM (inactive) | 2.28 µM (inactive) | 1.6 µM (inactive) | 2.41 µM (inactive) |
| C(/Cc1ccc2c(c1)OCO2)=N\N=C1NCCN1 | > 100 µM (inactive) | > 100 µM (inactive) | 34.8 µM (inactive) | 57.9 µM (inactive) | > 100 µM (inactive) | 41.2 µM (inactive) |  | > 100 µM (inactive) | > 100 µM (inactive) | > 100 µM (inactive) | > 100 µM (inactive) | > 100 µM (inactive) | > 100 µM (inactive) | 61.2 µM (inactive) | 92.3 µM (inactive) | > 100 µM (inactive) | > 100 µM (inactive) | 71.3 µM (inactive) | > 100 µM (inactive) | 90.6 µM (inactive) |
| O=C1C(Cl)=C(NCCO)C(=O)c2c(O)ccc(O)c21 | 5.53 µM (inactive) | 1.74 µM (inactive) | > 10 µM (inactive) | 2.48 µM (inactive) | 2.49 µM (inactive) | 1.64 µM (inactive) |  | 2.16 µM (inactive) | 2.76 µM (inactive) | 0.6 µM (active) | 3.97 µM (inactive) | 2.37 µM (inactive) | 1.33 µM (inactive) | 6.37 µM (inactive) | 3.1 µM (inactive) | 1.93 µM (inactive) | 2.17 µM (inactive) | 2.78 µM (inactive) | 1.96 µM (inactive) | 4.24 µM (inactive) |
